Test results from paper PMC10164177, “The difference in the cellular uptake of tocopherol and tocotrienol is influenced by their affinities to albumin” (Scientific Reports, 2023).

What was measured:
[1] = tested on: THP-1 monocytes; assay: Cellular uptake in THP-1 monocytes at low temperature (4 °C); type: cell-based, human; settings: 20.0 μM, 2 h; for effect of BSA addition on cellular uptake at low temperature: serum-depleted medium with 0–200.0 μM BSA
Method: THP-1 monocytes preincubated in 10% FBS/RPMI medium were collected. The collected cells (2.5 × 10^6) were suspended in 1.0 mL of 10% PBS/RPMI medium containing 0, 0.2, 2.0, 20.0, 32.4, and 200.0 μM BSA on ice. This suspension was immediately mixed with 4.0 mL of 10% PBS/RPMI medium containing BSA and vitamin E. The final composition was 5.0 mL of 10% PBS/RPMI medium containing 0, 0.2, 2.0, 20.0, 32.4, or 200.0 μM BSA, and 20.0 μM α-Toc or α-T3. Cells were incubated at 4 °C with slow rotation in a tube rotator. After 2 h incubation, the cell lysate was prepared as above, and vitamin E and protein levels were measured.
Vitamin E was extracted from the cell lysates according to the procedure described in our previous study. Tocol (Tama Biochemical, Tokyo, Japan) was used as an internal standard. The extract was analyzed by liquid chromatography-tandem mass spectrometry (LC–MS/MS). The LC–MS/MS system consisted of an ExionLC system and a 4000QTRAP mass spectrometer (SCIEX, Tokyo, Japan). An Inersil SIL-100A-5 column (4.6 mm × 250 mm; GL Science, Tokyo, Japan) was eluted with a mobile phase consisting of hexane/1,4-dioxane/2-propanol (100:4:0.5, v/v/v). The flow rate was 1.0 mL/min, and the column temperature was 40 °C. Vitamin E was detected in the multiple reaction monitoring (MRM) mode (Table 1) under atmospheric pressure chemical ionization. The ion source parameters were as follows: curtain gas, 45.0 psi; collision gas, 8.0 psi; nebulizer current, − 3.0 μA; temperature, 350.0 °C; ion source gas 1, 60.0 psi; interface heater, ON.

[2] = tested on: Jurkat cells; set-up: method as in PMID 15753172; settings: 1 μM α-Toc or α-T3, 24 hours; cited from earlier work
[3] = target: T1, BSA (Bos taurus, UniProt P02769); assay: Fluorescence quenching binding parameters between vitamin E and BSA; set-up: species or system bovine; settings: 2.0 μM BSA, room temperature, mean ± S.E. (n = 3); for Stern–Volmer constant (Ksv) / Kd: excitation 280 nm, emission 340 nm; for Kd: read-out: apparent binding constant (Ka) (converted)
T1 construct: Bovine serum albumin (BSA; Fatty Acid/IgG/Protease-Free); purchased FUJIFILM Wako Pure Chemical Corporation, Ltd. (Osaka, Japan)
T1 sequence (P02769 25-607): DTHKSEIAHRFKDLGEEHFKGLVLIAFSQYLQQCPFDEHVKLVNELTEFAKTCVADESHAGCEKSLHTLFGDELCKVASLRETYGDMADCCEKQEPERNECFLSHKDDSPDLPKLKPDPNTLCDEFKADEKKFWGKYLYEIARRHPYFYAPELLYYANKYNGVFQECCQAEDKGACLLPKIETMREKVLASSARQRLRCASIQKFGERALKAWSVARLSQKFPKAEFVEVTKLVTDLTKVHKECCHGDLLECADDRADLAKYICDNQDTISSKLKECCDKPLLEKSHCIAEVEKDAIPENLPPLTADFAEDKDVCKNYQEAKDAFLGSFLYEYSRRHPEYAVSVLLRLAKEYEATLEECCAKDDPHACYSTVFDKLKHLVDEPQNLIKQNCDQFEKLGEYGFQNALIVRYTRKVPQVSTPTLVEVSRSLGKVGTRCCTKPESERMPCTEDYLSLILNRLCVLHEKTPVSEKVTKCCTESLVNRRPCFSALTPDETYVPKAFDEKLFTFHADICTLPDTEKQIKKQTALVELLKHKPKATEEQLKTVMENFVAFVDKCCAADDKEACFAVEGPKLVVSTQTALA
Method: The binding parameters of each Toc or T3 analog to BSA were measured with slight modifications to a previously described procedure[32],[34]. Each Toc or T3 analog was dissolved in DMSO at 10 mM, and added to a quartz cell containing 3.0 mL of 2.0 μM BSA stock solution to achieve a final concentration of 1.0–225.0 μM. […] Fluorescence spectra were recorded at room temperature using FP-6200 (JASCO, Tokyo, Japan) at an excitation wavelength of 280 nm and emission wavelengths from 300 to 500 nm. The intensity at 340 nm was used to calculate the Stern–Volmer constant (Ksv) by the following equation[39]: F0/F = 1 + Ksv[VE]. We also calculated the apparent binding constant (Ka) and the number of binding sites (n) by the following equation[40]: log((F0 − F)/F) = nlogKa − nlog(1/([VE] − [BSA](F0 − F)/F0)). Abbreviations in the above equations refer to follows: F0, initial fluorescence intensity; F, fluorescence intensity in the presence of each Toc or T3 analog; [VE], molar concentration of each Toc or T3 analog; [BSA], original BSA concentration. The same measurements were performed using a buffer solution without BSA, and the F values were calculated using the measured fluorescence intensity as a blank.

[4] = tested on: THP-1 monocytes; assay: Cellular uptake of vitamin E in THP-1 monocytes (37 °C, LC–MS/MS); type: cell-based, human; settings: 20.0 μM analog, serum-depleted medium with 0–200.0 μM BSA, 2 h
Method: THP-1 monocytes (2.5 × 10^6 cells) were preincubated in 5.0 mL of 10% FBS/RPMI medium. The cells (2.5 × 10^6 cells) were also preincubated in 5.0 mL of FBS-free 10% PBS/RPMI medium in the absence or presence of 0.2, 2.0, 20.0, 32.4, and 200.0 μM BSA (each medium was prepared by dissolving the 2.0 mM BSA stock solution in 10% PBS/RPMI medium). After 24 h of these preincubations, 5.0 μL of each vitamin E stock solution was added to 10% FBS/RPMI medium or 10% PBS/RPMI medium at a final concentration of 20.0 μM and further incubated for 2 h. […] The incubated cells were collected by centrifugation and washed with PBS. The cells were resuspended in 0.6 mL water and homogenized on ice. A part of the lysate (0.5 mL) was used to analyze vitamin E (described below), and the remaining 0.1 mL was used to quantify protein by the BCA Protein Assay (Thermo Fisher Scientific).
Vitamin E was extracted from the cell lysates according to the procedure described in our previous study. Tocol (Tama Biochemical, Tokyo, Japan) was used as an internal standard. The extract was analyzed by liquid chromatography-tandem mass spectrometry (LC–MS/MS). The LC–MS/MS system consisted of an ExionLC system and a 4000QTRAP mass spectrometer (SCIEX, Tokyo, Japan). […] Vitamin E was detected in the multiple reaction monitoring (MRM) mode (Table 1) under atmospheric pressure chemical ionization. […]

[5] = tested on: PC-3 cells; set-up: method as in PMID 21400505; settings: 50 μM γ-Toc or 10 μM γ-T3, 6 hours; cited from earlier work
[6] = tested on: LNCaP cells; set-up: method as in PMID 21400505; settings: 50 μM γ-Toc or 10 μM γ-T3, 6 hours; cited from earlier work
[7] = tested on: THP-1 monocytes; assay: Cellular uptake in THP-1 monocytes with ATP synthesis inhibitors; type: cell-based, human; settings: 10.0 μM vitamin E, 10.0 μM BSA, 1 mM DNP or 10 mM NaN3 + 5 mM 2DG, 1 h, 37 °C, vs control
Method: To further investigate cellular uptake mechanism, cell culture study was conducted using two ATP synthesis inhibitors as follows: (1) 1 mM 2,4-dinitrophenol or (2) a mixture of 10 mM sodium azide and 5 mM 2-deoxy-D-glucose[45]. THP-1 monocytes (2.5 × 10^6) preincubated in 10% FBS/RPMI medium were collected, suspended in 1.0 mL of PBS(+)[45] containing each inhibitor, and preincubated for 10 min at 37 °C under slow rotation in a tube rotator. […] Control samples were similarly prepared without the addition of inhibitors and incubated for 1 h. Vitamin E and protein levels were measured as described above.
Figure S1 The effect of two ATP synthesis inhibitors (1 mM 2,4-dinitrophenol (DNP) or a mixture of 10 mM sodium azide and 5 mM 2-deoxy-D-glucose (NaN3+2DG)) on the […]
Cells were incubated in PBS(+) […]
hour. Control samples were similarly incubated without the addition of inhibitors. […]
the main article. Values are expressed as mean ± SE of three independent experiments.
The statical significance of the results was analyzed using Dunnett's test, where p < 0.05 was considered statistically significant . […]
and samples treated with ATP synthesis inhibitor.
(1 picture or pasted object on this page, not shown here)

Row | cellular concentration compared with α-Toc at low temperature ([1]; BSA-containing medium) | Stern–Volmer constant (Ksv) [3] | Kd [3] [µM] | number of binding site (n) [3] | effect of ATP synthesis inhibitors on cellular uptake [7] | Structure (SMILES) | effect of BSA addition on cellular uptake at low temperature [1] | cellular uptake relative to α-Toc [2] [fold] | effect of BSA addition on cellular concentration [4] | cellular uptake compared with γ-Toc [5] | cellular uptake compared with γ-Toc [6]
1 | slightly higher than that of α-Toc | 1.19 ± 0.07 × 10^4 M^−1 | 69.4 | 0.70 ± 0.04 |  | CC(C)=CCC/C(C)=C/CC/C(C)=C/CC[C@]1(C)CCc2c(C)c(O)c(C)c(C)c2O1 [α-T3] | did not observe the BSA-induced increase | 6.5 |  |  | 
2 |  | 1.39 ± 0.13 × 10^4 M^−1 | 59.5 | 0.76 ± 0.00 |  | CC(C)=CCC/C(C)=C/CC/C(C)=C/CC[C@]1(C)CCc2c(C)c(O)cc(C)c2O1 [β-T3] |  |  |  |  | 
3 |  | 1.00 ± 0.02 × 10^4 M^−1 | 95.2 | 0.69 ± 0.01 |  | Cc1cc(O)c(C)c2c1O[C@](C)(CCC[C@H](C)CCC[C@H](C)CCCC(C)C)CC2 [β-Toc] |  |  |  |  | 
4 |  | 0.82 ± 0.01 × 10^4 M^−1 | 115 | 0.71 ± 0.02 |  | Cc1c(O)cc2c(c1C)O[C@](C)(CCC[C@H](C)CCC[C@H](C)CCCC(C)C)CC2 [γ-Toc] |  |  |  |  | 
5 |  | 1.51 ± 0.02 × 10^4 M^−1 | 55.2 | 0.78 ± 0.01 | No significance | CC(C)=CCC/C(C)=C/CC/C(C)=C/CC[C@]1(C)CCc2cc(O)cc(C)c2O1 [δ-T3] |  |  | increase the most |  | 
6 |  | 0.89 ± 0.04 × 10^4 M^−1 | 105 | 0.71 ± 0.01 | No significance | Cc1cc(O)cc2c1O[C@](C)(CCC[C@H](C)CCC[C@H](C)CCCC(C)C)CC2 [δ-Toc] |  |  |  |  | 

Row | Structure (SMILES) | cellular concentration compared with α-Toc at low temperature ([1]; BSA-containing medium) | Stern–Volmer constant (Ksv) [3] | Kd [3] [µM] | number of binding site (n) [3] | effect of ATP synthesis inhibitors on cellular uptake [7] | effect of BSA addition on cellular uptake at low temperature [1] | cellular uptake relative to α-Toc [2] [fold] | effect of BSA addition on cellular concentration [4] | cellular uptake compared with γ-Toc [5] | cellular uptake compared with γ-Toc [6]
7 | Cc1c(C)c2c(c(C)c1O)CC[C@@](C)(CCC[C@H](C)CCC[C@H](C)CCCC(C)C)O2 [α-Toc] |  | 0.93 ± 0.06 × 10^4 M^−1 | 99 | 0.69 ± 0.02 |  | reduced upon the addition of BSA |  | particularly pronounced |  | 
8 | CC(C)=CCC/C(C)=C/CC/C(C)=C/CC[C@]1(C)CCc2cc(O)c(C)c(C)c2O1 [γ-T3] |  | 1.35 ± 0.01 × 10^4 M^−1 | 62.1 | 0.74 ± 0.02 |  |  |  |  | higher cellular uptake than γ-Toc | higher cellular uptake than γ-Toc
